A short description of this data set: Log P by HPLC on reversed phase columns (EEC directive 79/831 Annex V.A8). It counts as physicochemical. The following applies: method marker [a] given with each value; Table 1.1, compounds of formula (I). The procedure, abridged:
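Reversed-phase HPLC per EEC 79/831 Annex V.A8, LC-UV with 10→95% acetonitrile linear gradient; eluent [a] 0.1% formic acid (acidic), [b] 0.001 M ammonium acetate (neutral), [c] 0.1% phosphoric acid (acidic). Calibrated with C3–C16 straight-chain alkan-2-ones, linear interpolation of retention times; multiple values joined by "+".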
For `C#CCOC(=O)C1(NC(=O)c2sc(C#N)c(Br)c2C)CC1` [1.0963], the LogP was 2.61^[a]. With `Cc1c(C(=O)NC2(C(=O)OC(C)C)CC2)sc(C#N)c1Br` [1.0964], the LogP is 2.93^[a]. The figure for `Cc1c(C(=O)NCC(=O)OC2CCCC2)sc(C#N)c1Br` [1.0965] is 3.24^[a]; for `CCCOC(=O)C1(NC(=O)c2sc(C#N)c(Br)c2C)CC1` [1.0966] it is 2.98^[a].

Take `Cc1c(C(=O)NCC(=O)Oc2ccccc2)sc(C#N)c1Br` [1.0967]: the LogP was 3.10^[a]. The figure for `Cc1c(C(=O)NC2(C(=O)OC3CCC3)CC2)sc(C#N)c1Br` [1.0968] is 3.13^[a]. As to `CCCCOC(=O)C1(NC(=O)c2sc(C#N)c(Br)c2C)CC1` [1.0969], the LogP was 3.36^[a]. Consider `Cc1c(C(=O)NC2(C(=O)OCC(C)C)CC2)sc(C#N)c1Br` [1.0970], for which the LogP was 3.33^[a]. The figure for `Cc1c(C(=O)NC2(C(=O)OC(C)(C)C)CC2)sc(C#N)c1Br` [1.0971] is 3.28^[a]; for `CCCCOC(=O)CNC(=O)c1sc(C#N)c(Br)c1C` [1.0972] it is 3.23^[a]; for `Cc1c(C(=O)NCC(=O)OCc2ccccc2)sc(C#N)c1Br` [1.0973] it is 3.26^[a]. The figure for `CCOC(=O)C(NC(=O)c1sc(C#N)c(Br)c1C)C1CC1` (stereo not drawn) [1.0974] is 3.15^[a]; for `Cc1c(C(=O)NC2(C(=O)OCc3ccccc3)CC2)sc(C#N)c1Br` [1.0975] it is 3.39^[a]; for `CNC(=S)C1(NC(=O)c2sc(Br)c(Br)c2F)CC1` [1.0976] it is 2.82^[a].

For `CN(C)C(=S)C1(NC(=O)c2sc(Br)c(Br)c2F)CC1` [1.0977], the LogP was 2.93^[a]. The figure for `COC(=O)C1(NC(=O)c2sc(Cl)c(C)c2Cl)CC1` [1.0978] is 2.86^[a]; for `COC(=O)C1(NC(=O)c2sc(Br)c(Br)c2F)CCC1` [1.0979] it is 3.32^[a]; for `Cc1c(C(=O)NC2(C(=O)OC3CCCC3)CC2)sc(C#N)c1Br` [1.0980] it is 3.36^[a]. The figure for `Cc1c(C(=O)NCC(=O)OC(C)(C)C)sc(C#N)c1Br` [1.0981] is 3.14^[a]. On to `Cc1c(C(=O)NCC(=O)OCC2CC2)sc(C#N)c1Br` [1.0982], for which the LogP was 2.86^[a]. The figure for `CCCOC(=O)CNC(=O)c1sc(Br)c(Br)c1Cl` [1.0983] is 3.76^[a]; for `N#CCCOC(=O)CNC(=O)c1sc(Br)c(Br)c1Cl` [1.0984] it is 2.76^[a]. The figure for `O=C(CNC(=O)c1sc(Br)c(Br)c1Cl)OCC1CC1` [1.0985] is 3.79^[a]; for `CC(C)(C)OC(=O)CNC(=O)c1sc(Br)c(Br)c1Cl` [1.0986] it is 4.20^[a]. With `CCCCOC(=O)CNC(=O)c1sc(Br)c(Br)c1Cl` [1.0987], the LogP is 4.22^[a].

`O=C(CNC(=O)c1sc(Br)c(Br)c1Cl)OC1CCCC1` [1.0988]: the LogP was 4.28^[a]. The figure for `O=C(CNC(=O)c1sc(Br)c(Br)c1Cl)Oc1ccccc1` [1.0989] is 3.93^[a]. The figure for `O=C(CNC(=O)c1sc(Br)c(Br)c1Cl)OCc1ccccc1` [1.0990] is 4.15^[a]; for `CCOC(=O)C(NC(=O)c1sc(Br)c(Br)c1Cl)C1CC1` (stereo not drawn) [1.0991] it is 4.34^[a]; for `C#CCOC(=O)CNC(=O)c1sc(C#N)c(Br)c1C` [1.0992] it is 2.43^[a]. `Cc1c(C(=O)NCC(=O)OC2CC2)sc(C#N)c1Br` [1.0993]: the LogP was 2.54^[a]. Regarding `C=CCOC(=O)CNC(=O)c1sc(C#N)c(Br)c1C` [1.0994], the LogP was 2.65^[a]. With `CCCOC(=O)CNC(=O)c1sc(C#N)c(Br)c1C` [1.0995], the LogP is 2.81^[a]. The figure for `Cc1c(C(=O)NCC(=O)OCCC#N)sc(C#N)c1Br` [1.0996] is 2.09^[a]. The figure for `O=C(CNC(=O)c1sc(Br)c(Br)c1Cl)SCc1ccccc1` [1.0997] is 4.62^[a]; for `CCSC(=O)C(NC(=O)c1sc(Br)c(Br)c1Cl)C(C)C` (stereo not drawn) [1.0998] it is 5.45^[a]. The figure for `CCOC(=O)CNC(=S)c1sc(Br)c(Br)c1F` [1.0999] is 4.23^[a]; for `CC(C)COC(=O)CNC(=O)c1sc(Br)c(Br)c1F` [1.1000] it is 3.88^[a]. `CNC(=S)CNC(=O)c1sc(Br)c(Br)c1F` [1.1001]: the LogP is 2.56^[a]. The figure for `CN(C)C(=S)CNC(=O)c1sc(Br)c(Br)c1F` [1.1002] is 3.19^[a]. The figure for `COC(=O)C1(NC(=O)c2sc(Cl)c(Br)c2Cl)CCC1` [1.1003] is 3.74^[a]; for `COC(=O)C1(NC(=O)c2sc(Cl)c(Cl)c2Br)CCC1` [1.1004] it is 3.85^[a]; for `O=C(CNC(=O)c1sc(Br)c(Br)c1F)OC1CSC1` [1.1007] it is 3.37^[a].

With `N#CCOC(=O)CNC(=O)c1sc(Br)c(Br)c1F` [1.1008], the LogP is 2.67^[a]. The figure for `CC(C)C(C#N)NC(=O)c1sc(Br)c(Br)c1F` (stereo not drawn) [1.1010] is 3.54^[a]; for `CC(C)C(C#N)NC(=O)c1sc(Cl)c(Cl)c1Br` (stereo not drawn) [1.1013] it is 3.84^[a]; for `N#CC1(NC(=O)c2sc(Cl)c(Cl)c2Br)CCC1` [1.1014] it is 3.37^[a].

On to `Cc1c(C(=O)NC2(C#N)CCC2)sc(C#N)c1Br` [1.1015], for which the LogP was 2.64^[a]. For the molecule `Cc1c(C(=O)NC(C#N)C(C)C)sc(C#N)c1Br` (stereo not drawn) [1.1016], the LogP was 3.03^[a].

On to `O=C(NC1(C(=O)O)CCC1)c1sc(Cl)c(Cl)c1Br` [1.1017], for which the LogP is 2.95^[a]. The figure for `O=C(CNC(=O)c1sc(Br)c(Br)c1F)OC1CCOCC1` [1.1018] is 2.80^[a]. With `COC(=O)C(C)(C)NC(=O)c1sc(Cl)c(Br)c1Cl` [1.1019], the LogP was 3.73^[a]. The figure for `COC(=O)C(C)(C)NC(=O)c1sc(Br)c(Br)c1Cl` [1.1020] is 3.75^[a]; for `COC(=O)C(C)(C)NC(=O)c1sc(Cl)c(Cl)c1Br` [1.1021] it is 3.71^[a]; for `CC(C)(NC(=O)c1sc(Cl)c(Br)c1Cl)C(=O)O` [1.1022] it is 2.80^[a]. For `CC(C)(NC(=O)c1sc(Br)c(Br)c1Cl)C(=O)O` [1.1023], the LogP was 2.81^[a].

Regarding `CC(C)(NC(=O)c1sc(Cl)c(Cl)c1Br)C(=O)O` [1.1024], the LogP is 2.80^[a].

In the case of `COC(=O)C(CCSC(C)=O)NC(=O)c1sc(Br)c(Br)c1Cl` (stereo not drawn) [1.1025], the LogP was 3.98^[a]. The figure for `O=C(CNC(=O)c1sc(Br)c(Br)c1F)OCC(F)(F)F` [1.1026] is 3.40^[a]; for `C[Si](C)(C)COC(=O)CNC(=O)c1sc(Br)c(Br)c1F` [1.1027] it is 4.40^[a]; for `COC(=O)C(CCSC(C)=O)NC(=O)c1sc(Cl)c(Cl)c1Br` (stereo not drawn) [1.1028] it is 3.98^[a].

For `O=C(O)C(NC(=S)c1sc(Br)c(Br)c1F)C1CC1` (stereo not drawn) [1.1029], the LogP is 3.45^[a]. The figure for `O=C(O)CNC(=S)c1sc(Cl)c(Cl)c1I` [1.1030] is 3.13^[a]. In the case of `CCOC(=O)C1(NC(=O)c2sc(C#N)c(Cl)c2Cl)CSC1` [1.1041], the LogP was 3.23^[a].

Regarding `COC(=O)[C@H](CC(=O)O)NC(=O)c1sc(Br)c(Br)c1F` [1.1043], the LogP is 2.28^[a]. The figure for `COC(=O)[C@H](CC(=O)O)NC(=O)c1sc(Cl)c(Cl)c1Br` [1.1044] is 2.58^[a]; for `CNC(=O)CNC(=O)c1sc(Br)c(Br)c1Cl` [1.1045] it is 2.07^[a]; for `CCOC(=O)C1(NC(=O)c2sc(Br)c(Cl)c2Cl)CSC1` [1.1046] it is 3.94^[a]. The figure for `COC(=O)[C@H](CC(N)=O)NC(=O)c1sc(Cl)c(Cl)c1Br` [1.1047] is 2.23^[a].

Regarding `COC(=O)[C@H](CCC(N)=O)NC(=O)c1sc(Br)c(Br)c1F` [1.1048], the LogP was 2.05^[a]. The figure for `COC(=O)[C@H](CCC(N)=O)NC(=O)c1sc(Cl)c(Cl)c1Br` [1.1049] is 2.25^[a]. With `COC(=O)[C@H](CCC(=O)O)NC(=O)c1sc(Cl)c(Cl)c1Br` [1.1050], the LogP was 2.68^[a].

For `CCOC(=O)C1(NC(=O)c2sc(Br)c(Br)c2C#N)CSC1` [1.1051], the LogP is 3.15^[a]. The figure for `CCOC(=O)C1(NC(=O)c2sc(Br)c(Br)c2C(F)F)CSC1` [1.1052] is 3.58^[a].

In the case of `COC(=O)C(C)(C)NC(=O)c1sc(C#N)c(Br)c1Br` [1.1053], the LogP is 3.34^[a]. The figure for `CCOC(=O)C1(NC(=O)c2sc(Cl)c(Cl)c2C#N)CSC1` [1.1054] is 3.05^[a]; for `N#CC1(NC(=O)c2sc(Br)c(Br)c2Cl)CCCSC1` (stereo not drawn) [1.1055] it is 3.85^[a]. The figure for `N#CC1(NC(=O)c2sc(Br)c(Br)c2F)CCCSC1` (stereo not drawn) [1.1056] is 3.41^[a]; for `CCOC(=O)C1(NC(=O)c2sc(Cl)c(Br)c2C)CSC1` [1.1057] it is 3.66^[a]; for `N#CCNC(=O)c1sc(C#N)c(Br)c1Br` [1.1058] it is 2.12^[a]. The figure for `CCOC(=O)C1(NC(=O)c2sc(Cl)c(Cl)c2C(F)F)CSC1` [1.1059] is 3.55^[a]. Regarding `CCOC(=O)C1(NC(=O)c2sc(Cl)c(Br)c2Br)CSC1` [1.1060], the LogP was 3.91^[a]. The figure for `COC(=O)C(C)(C)NC(=O)c1sc(Br)c(Br)c1C(F)F` [1.1061] is 3.21^[a]; for `CCOC(=O)C(C)(C)NC(=O)c1sc(Cl)c(Cl)c1Br` [1.1062] it is 4.24^[a]. Consider `CCOC(=O)C1(NC(=O)c2sc(Br)c(Cl)c2C)CSC1` [1.1063], for which the LogP is 3.62^[a]. The figure for `CCOC(=O)C(CO)NC(=O)c1sc(Br)c(Br)c1C(F)F` (stereo not drawn) [1.1064] is 2.63^[a]. Regarding `COC(=O)C(CCSC)NC(=O)c1sc(Br)c(Br)c1C(F)F` (stereo not drawn) [1.1065], the LogP was 3.55^[a].
